Source: publication doi:10.1101/2023.03.31.535043v1 (biorxiv, 2023)

Target: human A2AR (Homo sapiens, UniProt P29274)
Test: radioligand displacement, [3H]ZM241385
Type: binding
Settings: […] [3H]ZMA; […] Tris/HCl pH […]; […] min; CHO K1 membranes

human A2AR, sequence (P29274 whole entry): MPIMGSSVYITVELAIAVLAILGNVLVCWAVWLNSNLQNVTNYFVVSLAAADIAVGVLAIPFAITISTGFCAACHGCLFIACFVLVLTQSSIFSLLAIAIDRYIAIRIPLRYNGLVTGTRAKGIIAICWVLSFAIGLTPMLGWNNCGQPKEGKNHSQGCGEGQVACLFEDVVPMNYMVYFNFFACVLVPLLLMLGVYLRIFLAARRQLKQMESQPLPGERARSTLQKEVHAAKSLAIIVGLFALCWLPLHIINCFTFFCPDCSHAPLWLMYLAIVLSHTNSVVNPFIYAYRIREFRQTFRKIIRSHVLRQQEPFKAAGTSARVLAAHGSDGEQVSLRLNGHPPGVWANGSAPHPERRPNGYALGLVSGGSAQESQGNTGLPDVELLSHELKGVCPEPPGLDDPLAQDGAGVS

Q: For `N#Cc1c(NC(=O)Cn2c(=O)oc3ccccc32)oc(-c2ccccc2)c1-c1ccccc1` [JG-10], which Ki is on record?
A: 310 ± 23.4 nM
